One assay concerns HCV replicon genotype 1a. In words: HCV replicon assay, genotype 1a (cell ELISA for NS3/4A). The class given is cell-based, hepatitis C virus. The method, boiled down: (§1)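 Stable neomycin-resistant replicon cell lines (genotype 1a or 1b) incubated 96 h with compound dilution series without G418. After washing and lysis, replication measured by cell ELISA for replicon-encoded NS3/4A protein; IC50 as % of DMSO control via four-parameter fit.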

The test system of another assay is HCV replicon genotype 1b. In words: HCV replicon assay, genotype 1b (cell ELISA for NS3/4A). It counts as cell-based, hepatitis C virus. The method, boiled down:
as §1
(In general: In antiviral work, replicon cells carry a viral genome segment that copies itself.)

[1] abbreviates: read-out: 1a IC50, HCV genotype 1a replicon cells, 96 hours incubation, NS3/4A ELISA readout, % of DMSO control.
Setting [2] is: read-out: 1b IC50, HCV genotype 1b replicon cells, 96 hours incubation, NS3/4A ELISA readout, % of DMSO control.
The mark [3] stands for this setting: Hepatitis C virus, 96 h, read-out: 1a IC50 (nM), HCV genotype 1a replicon cells, 96 hours incubation, NS3/4A ELISA readout, % of DMSO control.
[4] abbreviates: Hepatitis C virus, 96 h, read-out: 1b IC50 (nM), HCV genotype 1b replicon cells, 96 hours incubation, NS3/4A ELISA readout, % of DMSO control.

Read-outs that look alike come from different tables or passages of the source.

For the molecule `CNC(=O)c1c(-c2ccc(F)cc2)oc2cc(N(C)S(C)(=O)=O)c([C@@H]3CCN(C(=O)c4cc5c(F)cccc5n4C)C3)cc12` (single isomer, unassigned) [Example 14, 5-(1-(4-fluoro-1-methyl-1H-indole-2-carbonyl)pyrrolidin-3-yl)-2-(4-fluorophenyl)-N-methyl-6-(N-methylmethylsulfonamido)benzofuran-3-carboxamide], the IC50 stood at 25.9 nM with HCV replicon genotype 1a (setting [1]) and 2.77 nM in the assay on HCV replicon genotype 1b (setting [2]).
Take `CNC(=O)c1c(-c2ccc(F)cc2)oc2cc(N(C)S(C)(=O)=O)c([C@@H]3CCCN(S(=O)(=O)c4ccccc4F)C3)cc12` [Example 119, 2-(4-fluorophenyl)-5-{(3S)-1-[(2-fluorophenyl)sulfonyl]piperidin-3-yl}-N-methyl-6-[methyl(methylsulfonyl)amino]-1-benzofuran-3-carboxamide]: the IC50 in the assay on HCV replicon genotype 1a (setting [3]) is 24.5 nM; in the assay on HCV replicon genotype 1b (setting [4]) it was 10.9 nM.
With `CNC(=O)c1c(-c2ccc(F)cc2)oc2cc(N(C)S(C)(=O)=O)c(C3CCCN(C(=O)[C@H](NC(=O)OC(C)(C)C)c4ccccc4F)C3)cc12` (single isomer, unassigned) [Example 27], the IC50 came to 44.4 nM in the assay with HCV replicon genotype 1a (setting [3]) and 35.2 nM with HCV replicon genotype 1b (setting [4]).
Turning to `CNC(=O)c1c(-c2ccc(F)cc2)oc2cc(N(C)S(C)(=O)=O)c([C@@H]3CCCN(c4ncc(-c5ccc(F)cc5)o4)C3)cc12` (single isomer, unassigned) [Example 58, 2-(4-fluorophenyl)-5-(1-(5-(4-fluorophenyl)oxazol-2-yl)piperidin-3-yl)-N-methyl-6-(N-methylmethylsulfonamido)benzofuran-3-carboxamide], the IC50 in the assay with HCV replicon genotype 1a (setting [1]) stood at 132 nM; in the assay with HCV replicon genotype 1b (setting [2]), 36.1 nM.
With `CNC(=O)c1c(-c2ccc(F)cc2)oc2cc(N(C)S(C)(=O)=O)c([C@@H]3CCCN(C(=O)c4cc5cccc(F)c5[nH]4)C3)cc12` [Example 32, (S)-5-(1-(7-fluoro-1H-indole-2-carbonyl)piperidin-3-yl)-2-(4-fluorophenyl)-N-methyl-6-(N-methylmethylsulfonamido)benzofuran-3-carboxamide], the IC50 in the assay on HCV replicon genotype 1a (setting [3]) was found to be 53.1 nM; in the assay with HCV replicon genotype 1b (setting [4]), 19.2 nM.
With `CNC(=O)c1c(-c2ccc(F)cc2)oc2cc(N(C)S(C)(=O)=O)c([C@@H]3CCCN(c4nc5c(F)cccc5o4)C3)cc12` (single isomer, unassigned) [Example 49, 5-(1-(4-fluorobenzo[d]oxazol-2-yl)piperidin-3-yl)-2-(4-fluorophenyl)-N-methyl-6-(N-methylmethylsulfonamido)benzofuran-3-carboxamide], the IC50 in the assay on HCV replicon genotype 1a (setting [1]) was 5.76 nM; in the assay with HCV replicon genotype 1b (setting [2]), 7.44 nM.
Turning to `CNC(=O)c1c(-c2ccc(F)cc2)oc2cc(N(C)S(C)(=O)=O)c([C@@H]3CCCN(S(=O)(=O)c4cc5cccc(F)c5[nH]4)C3)cc12` [Example 2, (S)-5-(1-((7-fluoro-1H-indol-2-yl)sulfonyl)piperidin-3-yl)-2-(4-fluorophenyl)-N-methyl-6-(N-methylmethylsulfonamido)benzofuran-3-carboxamide], the IC50 in the assay with HCV replicon genotype 1a (setting [3]) is 84.1 nM; in the assay on HCV replicon genotype 1b (setting [4]) it was 41 nM.
As for `CNC(=O)c1c(-c2ccc(F)cc2)oc2cc(N(C)S(C)(=O)=O)c([C@H]3CCCN(C(=O)c4nc5ccc(F)cc5[nH]4)C3)cc12` [Example 92, 5-{(3R)-1-[(6-fluoro-1H-benzimidazol-2-yl)carbonyl]piperidin-3-yl}-2-(4-fluorophenyl)-N-methyl-6-[methyl(methylsulfonyl)amino]-1-benzofuran-3-carboxamide], the IC50 in the assay on HCV replicon genotype 1a (setting [3]) was found to be 274 nM; in the assay with HCV replicon genotype 1b (setting [4]), 97 nM.
For `CNC(=O)c1c(-c2ccc(F)cc2)oc2cc(N(C)S(C)(=O)=O)c([C@H]3CCCN(C(=O)C(c4ccccc4)c4ccccc4)C3)cc12` [Example 108, 5-[(3R)-1-(diphenylacetyl)piperidin-3-yl]-2-(4-fluorophenyl)-N-methyl-6-[methyl(methylsulfonyl)amino]-1-benzofuran-3-carboxamide], the IC50 came to 266 nM with HCV replicon genotype 1a (setting [3]) and 53 nM in the assay with HCV replicon genotype 1b (setting [4]).
For the molecule `CNC(=O)c1c(-c2ccc(F)cc2)oc2cc(N(C)S(C)(=O)=O)c([C@@H]3CCCN(c4nc5ncccc5o4)C3)cc12` (single isomer, unassigned) [Example 54, 2-(4-fluorophenyl)-N-methyl-6-(N-methylmethylsulfonamido)-5-(1-(oxazolo[4,5-b]pyridin-2-yl)piperidin-3-yl)benzofuran-3-carboxamide], the IC50 turned out to be 7.38 nM in the assay with HCV replicon genotype 1a (setting [1]) and 13.9 nM with HCV replicon genotype 1b (setting [2]).
With `CNC(=O)c1c(-c2ccc(F)cc2)oc2cc(N(C)S(C)(=O)=O)c([C@H]3CCCN(S(=O)(=O)CCc4ccccc4)C3)cc12` [Example 141, 2-(4-fluorophenyl)-N-methyl-6-[methyl(methylsulfonyl)amino]-5-{(3R)-1-[(2-phenylethyl)sulfonyl]piperidin-3-yl}-1-benzofuran-3-carboxamide], the IC50 in the assay with HCV replicon genotype 1a (setting [3]) amounted to 10.6 nM; with HCV replicon genotype 1b (setting [4]), 14.2 nM.
Take `CNC(=O)c1c(-c2ccc(F)cc2)oc2cc(N(C)S(C)(=O)=O)c([C@H]3CCCN(S(=O)(=O)Cc4ccccn4)C3)cc12` [Example 139, 2-(4-fluorophenyl)-N-methyl-6-[methyl(methylsulfonyl)amino]-5-{(3R)-1-[(pyridin-2-ylmethyl)sulfonyl]piperidin-3-yl}-1-benzofuran-3-carboxamide]: the values for the IC50 in the assay with HCV replicon genotype 1a (setting [3]) and with HCV replicon genotype 1b (setting [4]) were 35 nM and 21.1 nM, respectively.
Take `CNC(=O)c1c(-c2ccc(F)cc2)oc2cc(N(C)S(C)(=O)=O)c([C@@H]3CCCN(S(=O)(=O)Cc4ccncc4)C3)cc12` [Example 109, 2-(4-fluorophenyl)-N-methyl-6-[methyl(methylsulfonyl)amino]-5-{(3S)-1-[(pyridin-4-ylmethyl)sulfonyl]piperidin-3-yl}-1-benzofuran-3-carboxamide]: the IC50 with HCV replicon genotype 1a (setting [3]) stood at 104 nM; in the assay on HCV replicon genotype 1b (setting [4]) it was 26.2 nM.
On to `CNC(=O)c1c(-c2ccc(F)cc2)oc2cc(N(C)S(C)(=O)=O)c([C@@H]3CCCN(C(=O)c4cc(-c5ccc(F)cc5)n[nH]4)C3)cc12` [Example 73, 2-(4-fluorophenyl)-5-(1-{[3-(4-fluorophenyl)-1H-pyrazol-5-yl]carbonyl}piperidin-3-yl)-N-methyl-6-[methyl(methylsulfonyl)amino]-1-benzofuran-3-carboxamide], for which the IC50 in the assay with HCV replicon genotype 1a (setting [3]) is 50.5 nM; in the assay with HCV replicon genotype 1b (setting [4]), 23.4 nM.
The like results for `CNC(=O)c1c(-c2ccc(F)cc2)oc2cc(N(C)S(C)(=O)=O)c([C@H]3CCCN(C(=O)c4cn(C)c5ccccc45)C3)cc12` [Example 101, 2-(4-fluorophenyl)-N-methyl-5-{(3R)-1-[(1-methyl-1H-indol-3-yl)carbonyl]piperidin-3-yl}-6-[methyl(methylsulfonyl)amino]-1-benzofuran-3-carboxamide] were, in that order, 103 nM and 55.9 nM.
The like results for `CNC(=O)c1c(-c2ccc(F)cc2)oc2cc(N(C)S(C)(=O)=O)c([C@H]3CCCN(S(=O)(=O)Cc4cccc(F)c4)C3)cc12` [Example 82, 5-{(3R)-1-[(3-fluorobenzyl)sulfonyl]piperidin-3-yl}-2-(4-fluorophenyl)-N-methyl-6-[methyl(methylsulfonyl)amino]-1-benzofuran-3-carboxamide] were, in that order, 2.2 nM and 3.26 nM.
`CNC(=O)c1c(-c2ccc(F)cc2)oc2cc(N(C)S(C)(=O)=O)c([C@H]3CCCN(C(=O)c4cn5cc(Cl)cc(N)c5n4)C3)cc12` [Example 104, 5-{(3R)-1-[(8-amino-6-chloroimidazo[1,2-a]pyridin-2-yl)carbonyl]piperidin-3-yl}-2-(4-fluorophenyl)-N-methyl-6-[methyl(methylsulfonyl)amino]-1-benzofuran-3-carboxamide]: the IC50 was 284 nM in the assay with HCV replicon genotype 1a (setting [3]) and 136 nM in the assay with HCV replicon genotype 1b (setting [4]).
Take `CNC(=O)c1c(-c2ccc(F)cc2)oc2cc(N(C)S(C)(=O)=O)c([C@H]3CCCN(S(=O)(=O)c4ccc5ncsc5c4)C3)cc12` [Example 129, 5-[(3R)-1-(1,3-benzothiazol-6-ylsulfonyl)piperidin-3-yl]-2-(4-fluorophenyl)-N-methyl-6-[methyl(methylsulfonyl)amino]-1-benzofuran-3-carboxamide]: the IC50 in the assay with HCV replicon genotype 1a (setting [3]) amounted to 194 nM; in the assay on HCV replicon genotype 1b (setting [4]), 110 nM.
Regarding `CNC(=O)c1c(-c2ccc(F)cc2)oc2cc(N(C)S(C)(=O)=O)c([C@@H]3CCCN(C(=O)c4cc5ccccc5[nH]4)C3)cc12` (single isomer, unassigned) [Example 22, 5-(1-(1H-indole-2-carbonyl)piperidin-3-yl)-2-(4-fluorophenyl)-N-methyl-6-(N-methylmethylsulfonamido)benzofuran-3-carboxamide], the IC50 in the assay with HCV replicon genotype 1a (setting [1]) was 40.8 nM; in the assay with HCV replicon genotype 1b (setting [2]) it was 18.8 nM.
As to `CNC(=O)c1c(-c2ccc(F)cc2)oc2cc(N(C)S(C)(=O)=O)c([C@@H]3CCCN(C(=O)Cc4ccc(F)cn4)C3)cc12` (stereo in doubt) [Example 70, 2-(4-fluorophenyl)-5-{1-[(5-fluoropyridin-2-yl)acetyl]piperidin-3-yl}-N-methyl-6-[methyl(methylsulfonyl)amino]-1-benzofuran-3-carboxamide], the values for the IC50 in the assay on HCV replicon genotype 1a (setting [3]) and with HCV replicon genotype 1b (setting [4]) were 207 nM and 67.9 nM, respectively.
The like results for `CNC(=O)c1c(-c2ccc(F)cc2)oc2cc(N(C)S(C)(=O)=O)c([C@@H]3CCCN(C(=O)c4nc5ccccc5n4C)C3)cc12` (single isomer, unassigned) [Example 23, 2-(4-fluorophenyl)-N-methyl-5-(1-(1-methyl-1H-benzo[d]imidazole-2-carbonyl)piperidin-3-yl)-6-(N-methylmethylsulfonamido)benzofuran-3-carboxamide] were, in that order, 45.5 nM and 57.7 nM.

These data come from patent US9549921B2, “Heterocyclic compounds and methods of use thereof for the treatment of hepatitis C” (priority 2014, dated 2017).
